Assay results published in patent US10849861B2, “Pharmaceutical compound for treating colorectal cancer” (Everest Pharm. Industrial Co., LTD., priority 2018, dated 2020).

Assays:
[1] = tested on: human colorectal cancer cell line HCT-116; test: Cell viability by MTT assay, HCT-116; format: cell-based
From the text: (§1) The cell line HCT-116 is an adult colorectal cancer cell, and its cells are TGF-β1 and TGF-β2, which are the targeted cells commonly used in preclinical colorectal cancer; the cell line DLD-1 is a […] human colorectal cancer. The cells, which are cancer cells that have invaded the lymph nodes in the late stage, have rapid metastatic growth and are also the targeted cells commonly used in preclinical studies of colorectal cancer; the cell line MCF-7 is an adult […] mastocarcinoma cell with Tx-4 oncogene, which is a targeted cell commonly used in preclinical studies of mastocarcinoma. The cell line A549 is an adult […] lung cancer cell, and its cell characteristic is the ability to synthesize lecithin. Pre-clinical studies of targeted cells are commonly used in lung cancer; cell line EG7 is a lymphoma cell, and its cells with antigen OVA are the targeted cells commonly used in cancer immunotherapy for preclinical studies; cell line L929 is fibroblast, which is the specified cell for preclinical studies of the cytotoxicity standard assay.
(§2) Cell Viability by MTT Assay […]
(§3) 4) The culture solution is extracted, and DMSO is added to dissolve the purple crystals, and the light absorption value is measured at a wavelength of 570 nm.
(§4) 5) The cell survival rate and IC50 of the drug are calculated by comparing the values of the control group with the light absorption values of different groups.

[2] = tested on: human colorectal cancer cell line DLD-1; test: Cell viability by MTT assay, DLD-1; format: cell-based; conditions: DLD-1 colorectal cancer cells, 24 hours with drug
From the text: as §1, §2, §3, §4

[3] = tested on: human breast cancer cell line MCF-7; test: Cell viability by MTT assay, MCF-7; format: cell-based; conditions: MCF7, MCF-7 breast cancer cells, 24 hours with drug
From the text: as §1, §2, §3, §4

[4] = tested on: human lung cancer cell line A549; test: Cell viability by MTT assay, A549; format: cell-based; conditions: A549 lung cancer cells, 24 hours with drug
From the text: as §1, §2, §3, §4

lymphoma cell line E.G7 = test: Cell viability by MTT assay, E.G7; format: cell-based; conditions: E.G7 lymphoma cells, 24 hours with drug
From the text: as §1, §2, §3, §4

[5] = tested on: fibroblast cell line L929; test: Cell viability by MTT assay, L929; format: cell-based; conditions: Mus musculus, L929 fibroblast cells, 24 hours with drug
From the text: as §1, §2, §3, §4

[6] = tested on: human colorectal cancer cell (HT-29) tumors; test: Animal assay: HT-29 colorectal tumor growth in nu/nu mouse; format: in vivo; conditions: 10 mg/kg tail vein, 2 times per week, HT-29 in nu/nu mouse
Protocol: The mouse is used as a model organism to observe the inhibition growth of TG1 on colorectal cancer tumors.
1) The human colorectal cancer cell (HT-29) is implanted in the back of mouse (nu/nu mouse), and the tumors are grown to about 250 mm^3 for grouping.
2) The mice are divided into 3 groups (untreated group, treatment group TG1 and clinical anticancer drug Irinotecan of treatment group), 8 mice in each group.
3) The treatment group TG1 and Irinotecan are administered at a concentration of 10 mg/kg, and the drug is administered in the tail vein at a frequency of 2 times per week.
4) Observe the tumor volume growth, the tumor volume calculation formula is: length×width×width×0.5.

[7] = tested on: human colorectal cancer (Caco2, SW480, HCT116); conditions: Saunier et al. 2017; cited from earlier work

IC50 ([1]; Homo sapiens, HCT-116 colorectal cancer cells, MTT assay, 24 hours with drug) [µM] | IC50 [2] [µM] | IC50 [3] [µM] | IC50 [4] [µM] | IC50 (lymphoma cell line E.G7) [µM] | SMILES | ability to poison colorectal cancer cells relative to other cells ([1]; colorectal cancer cells versus other cells, from IC50 values of Table 1) | IC50 [5] [µM] | mean tumor volume ([6]; 10th day) [mm^3] | average tumor volume ([6]; 15th day) [mm^3] | average tumor volume ([6]; 20th day) [mm^3] | ability to inhibit cancer cells [7]
0.031 | 0.056 | 190 | 63 | 180 | Oc1ccc(/C=C/c2cc(O)cc(O)c2O)cc1 [TG1, 2,3,5, 4′-tetrahydroxy-trans-stilbene] | 1000-6000 times | 255 | 291 | 300 | 461 | –
– | – | – | – | – | Oc1ccc(C=Cc2cc(O)cc(O)c2)cc1 [resveratrol] | – | – | – | – | – | no any ability to inhibit cancer cells
